Format in all cases: cell-based, human
For assay [1], the system named is U266 cells (MM cell line). The assay can be described thus: Cell-bound BCMA by flow cytometry. To be noted: 24 h; for cell-bound BCMA levels: FIG. 1; for effectiveness at increasing cell-bound BCMA compared with other GSIs: all doses above 0.3 nM. The procedure: FIG. 1. Levels of cell-bound BCMA en multiple myelma (MM) cells Incubated with γ-secretase inhibitors (GSIs). U266 cells (MM cell line) were incubated with 0.3 nM, 0.5 nM, 1 nM or 3 nM of GSI (Compound 1, Compound 22, LY3039478 or PF3084014) for 24 hours, and BCMA levels were measured by flow cytometry.
(§1) For detecting levels of soluble and cell-bound BCMA, U266 cells (MM cell line) were seeded at 1×10^5 cells/well in a total volume of 250 μl into a 96-well plate. The cells were cultured in RPMI medium supplemented with 10% FCS. GSIs (Compound 1, Compound 22, LY3039478 (Lilly), and PF3084014 (Pfizer)) were added to U266 cell cultures at a concentration of 0.3 nM, 0.5 nM, 1 nM and 3 nM for soluble BCMA and at a concentration of […]. Following 24 hours of incubation at 37° C., the cells were collected, and BCMA levels were evaluated in both the cells (cell-bound BCMA) and the cell media (soluble BCMA). Cells were stained with an anti-BCMA antibody (PE anti-human CD269 BCMA, Biolegend). Soluble BCMA levels were analyzed by ELISA (Human BCMA/TNFRSF17 DuoSet kit: R&D Systems).
(In general: A flow cytometer gives signals particle by particle.)

The subject of assay [2] is B-ALL cell lines RSV411, REH, 018Z. Kind of assay: Cell surface BCMA by FACS, B-ALL cell lines. The note with it: up to 10 μM, 24 h. On the procedure:
(§2) Cells were seeded at 1×10^4 cells/well in a total volume of 250 μl into a 96-well plate. The cells were cultured in RPMI supplemented with 10% FCS.
(§3) The tested compounds (Compound 1 and Compound 22) were added to the cell cultures at concentrations of: 0, 10, 1, 0.5, 0.1, 0.01, 0.001 μM ([…], 10 nM, 100 nM, 500 nM, 1000 nM, and 10000 nM). Following 24 hours of incubation at 37° C., the cells were collected and stained with anti-BCMA antibody and immediately analyzed by FACS.
The effect of γ-secretase inhibitors on cell surface BCMA levels in Acute B-Cell Lymphoblastic Leukemia (B-ALL) cell lines was also observed using flow cytometry (FIG. 5). Cells from three different B-ALL cell lines were treated for 24 hours with different concentrations (0-10 μM) of GSIs (Compound 1 and Compound 22).

Assay [3] relates to U266 cells (MM cell line). Kind of assay: Soluble BCMA in cell media by ELISA. To be noted: for BCMA shedding: MM cells (U266), cell-bound and soluble BCMA. The procedure: FIG. 3. Levels of soluble BCMA In cell media after Incubation of multiple myeloma (MM) cells with γ-secretase inhibitors (GSIs). U266 cells (MM cell line) were incubated with 0.3 nM, 1 nM, 3 nM and 10 nM of GSI (Compound 1, Compound 22, LY3039478 or PF3084014) for 24 hours, and BCMA levels were measured by ELISA.
as §1
Background: ELISA stands for enzyme-linked immunosorbent assay.

Assay [4] has as its system SP49, Toledo, RC, SUDHL-4 and SUDHL-6 lymphoma cell lines. Kind of assay: Cell surface BCMA by FACS, five lymphoma cell lines. To be noted: SUDHL-4, SUDHL-6, 10 nM or more, 24 h. The procedure: as §2, §3
The effect of γ-secretase inhibitors on cell surface BCMA levels in lymphoma cell lines was observed using flow cytometry (FACS analysis) (FIG. 4). Cells from five different lymphoma cell lines were treated for 24 hours with different concentrations of Compound 1 (FIG. 4A) or Compound 22 (FIG. 4B). Lymphoma cell lines treated were: SP49 (MCL with Notch4 GOF); Toledo (DLBCL); RC (Double Hit DLBCL—MYC, BCL2); SUDHL-4 (DLBCL); and SUDHL-6 (DLBCL). GSI concentrations were 0, 1 nM, 10 nM, 100 nM, 500 nM, 1000 nM, and 10000 nM.

Assay [5] has as its system GFP^+ LPL line. Kind of assay: Lysis of GFP expressing tumor cell lines by BCMA-CAR-T cells and/or Compound (1). To be noted: BCMA-CAR-T cells and Compound (1) combined; 36 h. The text has this: Multiple unique fully human scFvs to BCMA are generated, and CARs based on these scFvs are generated. Multiple scFvs are identified by screening a fully human scFv phage library (>6×10^10 scFvs) with BCMA-Fc fusion protein and then 3T3 cells expressing human BCMA. FACS analysis of phage antibody clones against BCMA-3T3 and parental 3T3 cell lines is used to confirm unique positive clones.
The generated scFvs are used to generate BCMA-targeted CARs. These BCMA-targeted CARs have similar structure, e.g., each has a transmembrane domain comprising a CD28 polypeptide, and an intracellular domain comprising a […] and a co-stimulatory signaling region that comprises a CD28 polypeptide. Each of these BCMA-targeted CARs are cloned into a retroviral vector. These viral vectors are then transduced into HEK 293galv9 viral packaging cells in order to generate a stable packaging line for generation of CAR+ T cells. […] The cell surface expression of BCMA-targeted CARs on human T cells is determined via binding A647 conjugated BCMA-Fc fusion protein. The cell surface expression of BCMA-targeted 28z CAR24 is assessed, and cell surface detection is validated by flow cytometry.
The ability of BCMA-CAR-T cells and Compound (1) to specifically lyse human myeloma cell line (HMCL) is tested. […] At time 0, the percent of GFP tumor line is determined.

Each structure is given as a SMILES string. “Also recorded” adds a separate entry of the source.

As for `CN1C(=O)[C@@H](NC(=O)[C@H](CCC(F)(F)F)[C@H](CCC(F)(F)F)C(N)=O)N=C(c2ccccc2)c2ccccc21` [Compound 1, (2R,3S)—N-((3S)-1-methyl-2-oxo-5-phenyl-2,3-dihydro-1H-1,4-benzodiazepin-3-yl)-2,3-bis(3,3,3-trifluoropropyl)succinamide], in assay [1], the “cell-bound BCMA levels” value was “increased cell-bound BCMA levels”; the “effectiveness at increasing cell-bound BCMA compared with other GSIs” value is “as effective as LY3039478 and more effective than PF3084014”. Besides, the BCMA expression entry in assay [2] is “did not affect BCMA expression”. Further, the BCMA shedding result in assay [3] is given as “inhibit BCMA shedding”. Moreover, in assay [4], the “cell surface BCMA levels” value was “elevated BCMA levels”. Moreover, the “specific killing of GFP tumor cells” value in assay [5] is given as “specifically killed more cells of the GFP^+ LPL line than either treatment alone”.
With `Cc1cccc2c1NC(=O)[C@@H](NC(=O)[C@H](CCC(F)(F)F)[C@H](CCC(F)(F)F)C(N)=O)N=C2c1cccc(F)c1` [Compound (22), (2R,3S)—N-((3S)-5-(3-fluorophenyl)-9-methyl-2-oxo-2,3-dihydro-1H-1,4-benzodiazepin-3-yl)-2,3-bis(3,3,3-trifluoropropyl)succinamide], in assay [1], the “cell-bound BCMA levels” value is “increased cell-bound BCMA levels”; the “effectiveness at increasing cell-bound BCMA compared with other GSIs” value is “as effective as LY3039478 and more effective than PF3084014”. The BCMA expression result in assay [2] is on record as “did not affect BCMA expression”. Also, in assay [3], the BCMA shedding entry was “inhibit BCMA shedding”. For the same molecule, the “potency in reducing soluble BCMA in cell media compared with other GSIs” value in assay [3] (U266, 24 h) is reported as “more potent than Compound 1; also recorded: as potent as LY3039478; also recorded: more potent than PF3084014”. Also, in assay [4], the “cell surface BCMA levels” value is “elevated BCMA levels”.

The values are drawn from patent US20200085839A1, “COMBINATION OF IMMUNOTHERAPEUTICS AND BISFLUOROALKYL-1,4-BENZODIAZEPINONE COMPOUNDS FOR TREATING LYMPHOMAS” (Ayala Pharmaceuticals Inc., priority 2018, published 2020).
